Reference: PubChem BioAssay (NCI)
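The compound was tested at five concentrations on cells cultured in 96-well plates, with a 48-hour exposure period. TGI is the concentration that stops growth completely.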

Experiments:
Test in all cases: NCI anticancer screen, dose series, 48 h
[1] = test system: 786-0 renal
[2] = test system: OVCAR-8 ovarian
[3] = test system: OVCAR-3 ovarian
[4] = test system: K-562 leukemia
[5] = test system: DU-145 prostate
[6] = test system: SK-MEL-2 melanoma
[7] = test system: UACC-62 melanoma
[8] = test system: T-47D breast
[9] = test system: COLO 205 colon
[10] = test system: TK-10 renal
[11] = test system: UO-31 renal
[12] = test system: NCI-H226 lung
[13] = test system: MDA-N
[14] = test system: MALME-3M melanoma
[15] = test system: HL-60(TB) leukemia
[16] = test system: SK-MEL-5 melanoma

Measured: TGI

Cc1ccc2c(=O)c(-c3nnc(N)s3)c[nH]c2n1
> 100 µM: [1] | [2] | [3] | [4] | [5] | [6] | [7] | [8] | [9] | [10] | [11] | [12] | [13] | [14] | [15] | [16]

Cc1ccc2[nH]c3[nH]c(=O)[nH]c(=O)c3c2c1
> 100 µM: [1] | [2] | [3] | [4] | [5] | [6] | [7] | [8] | [9] | [10] | [11] | [12] | [13] | [14] | [15] | [16]
